What was measured:
wheat = test: Test B pre/postemergence wheat; type: in vivo, Triticum aestivum
Summary of the method: (§1)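 Herbicidal effect was estimated by eye on a ten-point control scale after plants spent twelve to sixteen days in a greenhouse following soil or foliar treatment. Foliar sprays targeted plants at one to four leaves; all doses were formulated in a non-phytotoxic solvent with surfactant.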

pigweed = test: Test B pre/postemergence pigweed; type: in vivo, Amaranthus retroflexus
Summary of the method: as §1

soybean = test: Test B pre/postemergence soybean; type: in vivo, Glycine max
Summary of the method: as §1

morningglory = test: Test B pre/postemergence morningglory; type: in vivo, Ipomoea hederacea
Summary of the method: as §1

corn = test: Test B pre/postemergence corn; type: in vivo, Zea mays
Summary of the method: as §1

cocklebur = test: Test B pre/postemergence cocklebur; type: in vivo, Xanthium strumarium
Summary of the method: as §1

sugar beet = test: Test B pre/postemergence sugar beet; type: in vivo, Beta vulgaris
Summary of the method: as §1

bamyardgrass = test: Test B flood test barnyardgrass; type: in vivo, Echinochloa crus-galli; details: for Plant response rating, Barnyardgrass: scale 0 to 10, 0 is no effect, 10 is complete control; for Barnyardgrass plant response rating: scale of 0 to 10 where 0 is no effect and 10 is complete control
Summary of the method: (§2)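 Plants were grown to the 2-leaf stage before treatment with test chemical, then held in a greenhouse for twelve to sixteen days. Injury was visually rated against untreated controls on a 0–10 scale, where 0 is no effect and 10 is complete control.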

purple nutsedge = test: Test B pre/postemergence purple nutsedge; type: in vivo, Cyperus rotundus
Summary of the method: as §1

wild oat = test: Test B pre/postemergence wild oat; type: in vivo, Avena fatua
Summary of the method: as §1

velvetleaf = test: Test B pre/postemergence velvetleaf; type: in vivo, Abutilon theophrasti
Summary of the method: as §1

bedstraw = test: Test B pre/postemergence bedstraw; type: in vivo, Galium aparine; details: Postemergence; for Plant response rating, Bedstraw: scale 0 to 10, 0 is no effect, 10 is complete control; for Bedstraw plant response rating: scale of 0 to 10 where 0 is no effect and 10 is complete control
Summary of the method: as §1

giant foxtail = test: Test B pre/postemergence giant foxtail; type: in vivo, Setaria faberii
Summary of the method: as §1

crabgrass = test: Test B pre/postemergence crabgrass; type: in vivo, Digitaria sanguinalis
Summary of the method: as §1

blackgrass = test: Test B pre/postemergence blackgrass; type: in vivo, Alopecurus myosuroides
Summary of the method: as §1

rice = test: Test B flood test rice; type: in vivo, Oryza sativa
Summary of the method: as §2

surinam grass = test: Test B pre/postemergence surinam grass; type: in vivo, Brachiaria decumbens
Summary of the method: as §1

duck salad = test: Test B flood test duck salad; type: in vivo, Heteranthera limosa; details: for Plant response rating, Ducksalad: scale 0 to 10, 0 is no effect, 10 is complete control; for Ducksalad plant response rating: scale of 0 to 10 where 0 is no effect and 10 is complete control
Summary of the method: as §2

rape = test: Test B pre/postemergence rape; type: in vivo, Brassica napus
Summary of the method: as §1

smallflower flatsedge = test: Test B flood test smallflower flatsedge; type: in vivo, Cyperus difformis
Summary of the method: as §2

[1] = Postemergence, Rate 500 g/ha, scale of 0 to 10 where 0 is no effect and 10 is complete control
[2] = Preemergence, Rate 62 g/ha, scale 0 to 10 (0 no effect, 10 complete control)
[3] = Preemergence, Rate 125 g/ha, scale of 0 to 10 where 0 is no effect and 10 is complete control
[4] = Preemergence, Rate 250 g/ha, scale 0 to 10, 0 is no effect, 10 is complete control
[5] = Preemergence, Rate 500 g/ha, scale 0 to 10, 0 is no effect, 10 is complete control
[6] = Postemergence, Rate 250 g/ha, scale 0 to 10, 0 is no effect, 10 is complete control
[7] = Postemergence, Rate 125 g/ha, scale 0 to 10, 0 is no effect, 10 is complete control
[8] = Rate 62 g/ha, Postemergence, scale of 0 to 10 where 0 is no effect and 10 is complete control
[9] = Postemergence (flood test), Rate 125 g/ha
[10] = Postemergence section (flood test species), Rate 500 g/ha
[11] = Rate 62 g/ha, Postemergence (flood test species)
[12] = flood test species, listed under Postemergence, Rate 250 g/ha
[13] = Preemergence, Rate 250 g/ha, scale of 0 to 10 where 0 is no effect and 10 is complete control
[14] = Postemergence section (flood test species), Rate 500 g/ha, scale of 0 to 10 where 0 is no effect and 10 is complete control
[15] = flood test species, listed under Postemergence, Rate 250 g/ha, scale 0 to 10, 0 is no effect, 10 is complete control

CC(C)Cn1c(=O)on(C(=O)N(c2ccc(Cl)cc2)C(C)C)c1=O [Compound 417]
Wheat plant response rating (wheat; [1]): 0 | Plant response rating, Wheat (wheat; [2]): 0 | Plant response rating, Wheat (wheat; [3]): 0 | Wheat plant response rating (wheat; [4]): 0 | Wheat plant response rating (wheat; [5]): 2 | Plant response rating, Redroot pigweed (pigweed; [6]): 0 | Redroot pigweed plant response rating (pigweed; [1]): 3 | Plant response rating, Redroot pigweed (pigweed; [2]): 0 | Plant response rating, Redroot pigweed (pigweed; [3]): 0 | Redroot pigweed plant response rating (pigweed; [4]): 4 | Redroot pigweed plant response rating (pigweed; [5]): 10 | Plant response rating, Soybean (soybean; [6]): 4 | Soybean plant response rating (soybean; [1]): 6 | Plant response rating, Soybean (soybean; [2]): 0 | Plant response rating, Soybean (soybean; [3]): 0 | Soybean plant response rating (soybean; [4]): 0 | Soybean plant response rating (soybean; [5]): 0 | Plant response rating, Morningglory (morningglory; [6]): 9 | Morningglory plant response rating (morningglory; [1]): 9 | Plant response rating, Morningglory (morningglory; [2]): 0 | Plant response rating, Morningglory (morningglory; [3]): 0 | Morningglory plant response rating (morningglory; [4]): 0 | Morningglory plant response rating (morningglory; [5]): 0 | Plant response rating, Corn (corn; [7]): 0 | Plant response rating, Corn (corn; [6]): 0 | Corn plant response rating (corn; [1]): 0 | Plant response rating, Corn (corn; [2]): 0 | Plant response rating, Corn (corn; [3]): 0 | Corn plant response rating (corn; [4]): 0 | Corn plant response rating (corn; [5]): 0 | Corn plant response rating (corn; [8]): 0 | Plant response rating, Cocklebur (cocklebur; [7]): 0 | Plant response rating, Cocklebur (cocklebur; [6]): 0 | Cocklebur plant response rating (cocklebur; [1]): 0 | Plant response rating, Cocklebur (cocklebur; [2]): 0 | Plant response rating, Cocklebur (cocklebur; [3]): 0 | Cocklebur plant response rating (cocklebur; [4]): 0 | Cocklebur plant response rating (cocklebur; [5]): 0 | Cocklebur plant response rating (cocklebur; [8]): 0 | Plant response rating, Sugarbeets (sugar beet; [6]): 0 | Sugarbeets plant response rating (sugar beet; [1]): 6 | Plant response rating, Sugarbeets (sugar beet; [2]): 0 | Plant response rating, Sugarbeets (sugar beet; [3]): 0 | Sugarbeets plant response rating (sugar beet; [4]): 2 | Sugarbeets plant response rating (sugar beet; [5]): 6 | Plant response rating, Barnyardgrass (bamyardgrass; [9]): 0 | Barnyardgrass plant response rating (bamyardgrass; [10]): 8 | Barnyardgrass plant response rating (bamyardgrass; [11]): 0 | Plant response rating, Barnyardgrass (bamyardgrass; [12]): 0 | Plant response rating, Nutsedge (purple nutsedge; [6]): 0 | Nutsedge plant response rating (purple nutsedge; [1]): 0 | Plant response rating, Nutsedge (purple nutsedge; [2]): 0 | Plant response rating, Nutsedge (purple nutsedge; [3]): 0 | Nutsedge plant response rating (purple nutsedge; [4]): 0 | Nutsedge plant response rating (purple nutsedge; [5]): 0 | Wild oats plant response rating (wild oat; [1]): 0 | Plant response rating, Wild oats (wild oat; [2]): 0 | Plant response rating, Wild oats (wild oat; [3]): 0 | Wild oats plant response rating (wild oat; [4]): 2 | Wild oats plant response rating (wild oat; [5]): 4 | Plant response rating, Velvetleaf (velvetleaf; [6]): 0 | Velvetleaf plant response rating (velvetleaf; [1]): 0 | Plant response rating, Velvetleaf (velvetleaf; [2]): 0 | Plant response rating, Velvetleaf (velvetleaf; [3]): 0 | Velvetleaf plant response rating (velvetleaf; [4]): 2 | Velvetleaf plant response rating (velvetleaf; [5]): 6 | Plant response rating, Bedstraw (bedstraw; Rate 125 g/ha): 0 | Plant response rating, Bedstraw (bedstraw; Rate 250 g/ha): 0 | Bedstraw plant response rating (bedstraw; Rate 500 g/ha): 6 | Bedstraw plant response rating (bedstraw; Rate 62 g/ha): 0 | Plant response rating, Giant foxtail (giant foxtail; [7]): 0 | Plant response rating, Giant foxtail (giant foxtail; [6]): 1 | Giant foxtail plant response rating (giant foxtail; [1]): 8 | Plant response rating, Giant foxtail (giant foxtail; [2]): 4 | Plant response rating, Giant foxtail (giant foxtail; [3]): 9 | Giant foxtail plant response rating (giant foxtail; [4]): 10 | Giant foxtail plant response rating (giant foxtail; [5]): 10 | Giant foxtail plant response rating (giant foxtail; [8]): 0 | Plant response rating, Crabgrass (crabgrass; [7]): 0 | Plant response rating, Crabgrass (crabgrass; [6]): 2 | Crabgrass plant response rating (crabgrass; [1]): 2 | Plant response rating, Crabgrass (crabgrass; [2]): 6 | Plant response rating, Crabgrass (crabgrass; [3]): 9 | Crabgrass plant response rating (crabgrass; [4]): 9 | Crabgrass plant response rating (crabgrass; [5]): 10 | Crabgrass plant response rating (crabgrass; [8]): 0 | Plant response rating, Blackgrass (blackgrass; [7]): 0 | Plant response rating, Blackgrass (blackgrass; [6]): 0 | Blackgrass plant response rating (blackgrass; [1]): 0 | Plant response rating, Blackgrass (blackgrass; [2]): 3 | Blackgrass plant response rating (blackgrass; [13]): 7 | Blackgrass plant response rating (blackgrass; [5]): 9 | Blackgrass plant response rating (blackgrass; [8]): 0 | Rice plant response rating (rice; [14]): 0 | Plant response rating, Rice (rice; [15]): 0 | Plant response rating, B. signalgrass (surinam grass; [7]): 0 | Plant response rating, B. signalgrass (surinam grass; [6]): 0 | B. signalgrass plant response rating (surinam grass; [1]): 0 | Plant response rating, B. signalgrass (surinam grass; [2]): 2 | Plant response rating, B. signalgrass (surinam grass; [3]): 3 | B. signalgrass plant response rating (surinam grass; [13]): 7 | B. signalgrass plant response rating (surinam grass; Preemergence, Rate 500 g/ha, scale of 0 to 10 where 0 is no effect and 10 is complete control): 7 | B. signalgrass plant response rating (surinam grass; [8]): 0 | Plant response rating, Ducksalad (duck salad; [9]): 0 | Ducksalad plant response rating (duck salad; [10]): 3 | Ducksalad plant response rating (duck salad; [11]): 0 | Plant response rating, Ducksalad (duck salad; [12]): 2 | Plant response rating, Rape (rape; [6]): 0 | Rape plant response rating (rape; [1]): 2 | Plant response rating, Rape (rape; [2]): 0 | Plant response rating, Rape (rape; [3]): 0 | Rape plant response rating (rape; [4]): 5 | Rape plant response rating (rape; [5]): 6 | S. Flatsedge plant response rating (smallflower flatsedge; [14]): 9 | Plant response rating, S. Flatsedge (smallflower flatsedge; [15]): 9
